Publication doi:10.1101/2023.07.01.547314v1 (biorxiv, 2023)
Residue numbers refer to the chain shown, from its start.

How the values were obtained:
A2BR [1] = biological target: T1, A2BR (Homo sapiens, UniProt P29275, N273Y); experiment: GloSensor cAMP assay, HEK293; assay type: cell-based
T1 sequence (P29275 1-332 N273Y): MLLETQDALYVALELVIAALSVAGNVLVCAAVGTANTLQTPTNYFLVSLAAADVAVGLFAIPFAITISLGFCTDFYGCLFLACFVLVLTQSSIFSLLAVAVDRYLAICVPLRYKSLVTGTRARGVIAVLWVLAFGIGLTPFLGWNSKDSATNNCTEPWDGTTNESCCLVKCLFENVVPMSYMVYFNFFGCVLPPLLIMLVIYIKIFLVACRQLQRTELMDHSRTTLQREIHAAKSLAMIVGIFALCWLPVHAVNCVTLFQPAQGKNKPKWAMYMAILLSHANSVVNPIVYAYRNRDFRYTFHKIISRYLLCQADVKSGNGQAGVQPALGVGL

A2BR [2] = biological target: T2, A2BR (Homo sapiens, UniProt P29275, Y10F); experiment: GloSensor cAMP assay, HEK293; assay type: cell-based
T2 sequence (P29275 1-332 Y10F): T1 sequence (P29275 1-332 N273Y) with Y10F, Y273N

A2BR [3] = biological target: T3, A2BR (Homo sapiens, UniProt P29275); experiment: GloSensor cAMP assay, HEK293; assay type: cell-based
T3 sequence (P29275 1-332): T1 sequence (P29275 1-332 N273Y) with Y273N

A2AR [4] = biological target: A2AR (Homo sapiens, UniProt P29274, Y9F); experiment: cell-based
A2AR [5] = biological target: A2AR (Homo sapiens, UniProt P29274); experiment: cell-based
A2AR [6] = biological target: A2AR (Homo sapiens, UniProt P29274, Y271N); experiment: cell-based
Chain of A2AR (Homo sapiens, UniProt P29274, Y271N) (P29274 whole entry Y271N): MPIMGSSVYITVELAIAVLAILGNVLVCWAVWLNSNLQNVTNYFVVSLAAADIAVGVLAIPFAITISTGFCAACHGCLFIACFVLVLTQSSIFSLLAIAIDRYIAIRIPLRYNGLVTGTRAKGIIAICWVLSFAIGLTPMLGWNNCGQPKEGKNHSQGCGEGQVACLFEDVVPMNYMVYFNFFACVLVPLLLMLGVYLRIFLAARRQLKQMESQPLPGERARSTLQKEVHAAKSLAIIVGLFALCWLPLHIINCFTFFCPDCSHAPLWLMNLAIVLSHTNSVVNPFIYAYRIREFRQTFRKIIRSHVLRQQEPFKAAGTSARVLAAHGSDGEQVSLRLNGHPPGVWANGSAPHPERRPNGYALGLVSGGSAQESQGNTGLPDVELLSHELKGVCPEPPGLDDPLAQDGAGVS

Chain of A2AR (Homo sapiens, UniProt P29274, Y9F) (P29274 whole entry Y9F): as the sequence (P29274 whole entry Y271N) above, with Y9F, N271Y counted along it
Chain of A2AR (Homo sapiens, UniProt P29274) (P29274 whole entry): as the sequence (P29274 whole entry Y271N) above, with N271Y counted along it

SMILES | IC50 (A2BR [1]) | IC50 (A2BR [2]) | IC50 (A2BR [3]) | IC50 (A2AR [4]) | IC50 (A2AR [5]) | IC50 (A2AR [6])
Cc1c(C#N)cccc1-c1cc(-c2ccn(Cc3cccc(C(C)(C)O)n3)c(=O)c2)nc(N)n1 [2-118, 3-[2-amino-6-[1-[[6-(2-hydroxypropan-2-yl)pyridin-2-yl]methyl]-2-oxo-1,2-dihydropyridin-4-yl]pyrimidin-4-yl]-2-methylbenzonitrile] | 1210 nM | 441 nM | 2630 nM | – | – | –
Cc1c(C#N)cccc1-c1cc(-c2cn(Cc3cccc(C(C)(C)O)n3)nn2)nc(N)n1 [AB928, 3-[2-amino-6-[1-[[6-(2-hydroxypropan-2-yl)pyridin-2-yl]methyl]triazol-4-yl]pyrimidin-4-yl]-2-methylbenzonitrile] | 7.46 nM | 1.29 nM | 8.18 nM | 1.78 nM | 3.21 nM | 65.6 nM
